Source: patent publication US20210338846A1, “COMPETITIVE PROSTATE-SPECIFIC MEMBRANE ANTIGEN (PSMA) BINDING AGENTS FOR REDUCTION OF NON-TARGET ORGAN UPTAKE OF RADIOLABELED PSMA INHIBITORS FOR PSMA POSITIVE TUMOR IMAGING AND RADIOPHARMACEUTICAL THERAPY” (The Johns Hopkins University, priority 2018, published 2021)
Values joined by “and” are separate entries in the source; they are usually repeats but may differ in a detail not shown here. Equal entries are not always repeated. Where two headings read alike, the source gives them in different places.

Tests used:
[1] = test system: PSMA+ PC-3 PiP and PSMA− PC-3 flu tumors; format: in vivo
[2] = test system: PSMA+ PC-3 PiP and PSMA− PC-3 flu tumors
[3] = 2 Hour (head; title: One-Hour), No CI
[4] = 2 Hour (head; title: One-Hour), co-injection 0.5 nmole VK-02-90
[5] = 2 Hour (head; title: One-Hour), co-injection 1.0 nmole VK-02-90
[6] = 2 Hour (head; title: One-Hour), co-injection 5.0 nmole VK-02-90
[7] = 4 Hour, co-injection 0.5 nmole VK-02-90
[8] = 4 Hour, co-injection 1.0 nmole VK-02-90
[9] = 4 Hour, co-injection 5.0 nmole VK-02-90
[10] = 1 h, co-injection 0.5 nmole YC-I-27
[11] = 1 h, co-injection 1.0 nmole YC-I-27
[12] = 1 h, co-injection 5.0 nmole YC-I-27
[13] = 4 h, co-injection 0.5 nmole YC-I-27
[14] = 4 h, co-injection 1.0 nmole YC-I-27
[15] = 4 h, co-injection 5.0 nmole YC-I-27
[16] = 24 h, co-injection 0.5 nmole YC-I-27

O=C([O-])CN1CCN(CC(=O)[O-])CCN(CC(=O)NCCCCC(=O)N(CCCC[C@H](NC(=O)N[C@@H](CCC(=O)O)C(=O)O)C(=O)O)Cc2ccc([125I])cc2)CCN(CC(=O)[O-])CC1.[Lu+3] [[^125I]VK-02-90-Lu]
Biodistribution: Blood [1, 3]: 1.1 ± 0.1 % injected dose/gram | Biodistribution: Flu tumor [1, 3]: 1.0 ± 0.2 % injected dose/gram | Biodistribution: Lacrimal gland [1, 3]: 2.1 ± 0.9 % injected dose/gram | Biodistribution: PiP tumor [1, 3]: 26 ± 3 % injected dose/gram | Biodistribution: Salivary gland [1, 3]: 2.3 ± 0.5 % injected dose/gram | Biodistribution: kidneys [1, 3]: 129 ± 15 % injected dose/gram | Biodistribution: spleen [1, 3]: 4.3 ± 0.9 % injected dose/gram | Biodistribution: stomach [1, 3]: 1.7 ± 0.3 % injected dose/gram | Biodistribution: Blood [1, 4]: 0.4 ± 0.1 % injected dose/gram | Biodistribution: Flu tumor [1, 4]: 0.6 ± 0.3 % injected dose/gram | Biodistribution: Lacrimal gland [1, 4]: 0.4 ± 0.1 % injected dose/gram | Biodistribution: PiP tumor [1, 4]: 37 ± 7 % injected dose/gram | Biodistribution: Salivary gland [1, 4]: 0.2 ± 0.03 % injected dose/gram | Biodistribution: kidneys [1, 4]: 10 ± 2.5 % injected dose/gram | Biodistribution: spleen [1, 4]: 1.1 ± 0.4 % injected dose/gram | Biodistribution: stomach [1, 4]: 0.2 ± 0.1 % injected dose/gram | Biodistribution: Blood [1, 5]: 0.4 ± 0.1 % injected dose/gram | Biodistribution: Flu tumor [1, 5]: 0.5 ± 0.1 % injected dose/gram | Biodistribution: Lacrimal gland [1, 5]: 0.4 ± 0.1 % injected dose/gram | Biodistribution: PiP tumor [1, 5]: 35 ± 9 % injected dose/gram | Biodistribution: Salivary gland [1, 5]: 0.2 ± 0.06 % injected dose/gram | Biodistribution: kidneys [1, 5]: 6.5 ± 0.9 % injected dose/gram | Biodistribution: spleen [1, 5]: 1.1 ± 0.4 % injected dose/gram | Biodistribution: stomach [1, 5]: 0.2 ± 0.04 % injected dose/gram | Biodistribution: Blood [1, 6]: 0.5 ± 0.1 % injected dose/gram | Biodistribution: Flu tumor [1, 6]: 0.9 ± 0.3 % injected dose/gram | Biodistribution: Lacrimal gland [1, 6]: 0.4 ± 0.03 % injected dose/gram | Biodistribution: PiP tumor [1, 6]: 24 ± 4 % injected dose/gram | Biodistribution: Salivary gland [1, 6]: 0.3 ± 0.1 % injected dose/gram | Biodistribution: kidneys [1, 6]: 4.2 ± 0.5 % injected dose/gram | Biodistribution: spleen [1, 6]: 0.7 ± 0.2 % injected dose/gram | Biodistribution: stomach [1, 6]: 0.2 ± 0.06 % injected dose/gram | Biodistribution: Blood ([1]; 4 Hour, No CI): 0.3 ± 0.2 % injected dose/gram | Biodistribution: Flu tumor ([1]; 4 Hour, No CI): 0.2 ± 0.1 % injected dose/gram | Biodistribution: Lacrimal gland ([1]; 4 Hour, No CI): 0.4 ± 0.2 % injected dose/gram | Biodistribution: PiP tumor ([1]; 4 Hour, No CI): 27 ± 8 % injected dose/gram | Biodistribution: Salivary gland ([1]; 4 Hour, No CI): 1.8 ± 0.2 % injected dose/gram | Biodistribution: kidneys ([1]; 4 Hour, No CI): 10 ± 2.5 % injected dose/gram | Biodistribution: spleen ([1]; 4 Hour, No CI): 0.6 ± 0.2 % injected dose/gram | Biodistribution: stomach ([1]; 4 Hour, No CI): 0.8 ± 0.5 % injected dose/gram | Biodistribution: Blood [1, 7]: 0.02 ± 0.01 % injected dose/gram | Biodistribution: Flu tumor [1, 7]: 0.1 ± 0.02 % injected dose/gram | Biodistribution: Lacrimal gland [1, 7]: 0.1 ± 0.03 % injected dose/gram | Biodistribution: PiP tumor [1, 7]: 25 ± 2 % injected dose/gram | Biodistribution: Salivary gland [1, 7]: 0.08 ± 0.04 % injected dose/gram | Biodistribution: kidneys [1, 7]: 2.1 ± 0.7 % injected dose/gram | Biodistribution: spleen [1, 7]: 0.2 ± 0.1 % injected dose/gram | Biodistribution: stomach [1, 7]: 0.06 ± 0.01 % injected dose/gram | Biodistribution: Blood [1, 8]: 0.2 ± 0.01 % injected dose/gram | Biodistribution: Flu tumor [1, 8]: 0.1 ± 0.03 % injected dose/gram | Biodistribution: Lacrimal gland [1, 8]: 0.1 ± 0.05 % injected dose/gram | Biodistribution: PiP tumor [1, 8]: 27 ± 4 % injected dose/gram | Biodistribution: Salivary gland [1, 8]: 0.1 ± 0.02 % injected dose/gram | Biodistribution: kidneys [1, 8]: 1.4 ± 0.4 % injected dose/gram | Biodistribution: spleen [1, 8]: 0.2 ± 0.1 % injected dose/gram | Biodistribution: stomach [1, 8]: 0.1 ± 0.03 % injected dose/gram | Biodistribution: Blood [1, 9]: 0 % injected dose/gram | Biodistribution: Flu tumor [1, 9]: 0.1 ± 0.01 % injected dose/gram | Biodistribution: Lacrimal gland [1, 9]: 0.1 ± 0.1 % injected dose/gram | Biodistribution: PiP tumor [1, 9]: 19 ± 2 % injected dose/gram | Biodistribution: Salivary gland [1, 9]: 0.05 ± 0.02 % injected dose/gram | Biodistribution: kidneys [1, 9]: 0.9 ± 0.3 % injected dose/gram | Biodistribution: spleen [1, 9]: 0.15 ± 0.08 % injected dose/gram | Biodistribution: stomach [1, 9]: 0.1 ± 0.04 % injected dose/gram | Biodistribution: Blood ([2]; 1 h, No CI): 1.1 ± 0.1 % injected dose/gram | Biodistribution: Flu tumor ([2]; 1 h, No CI): 1.0 ± 0.2 % injected dose/gram | Biodistribution: Lacrimal gland ([2]; 1 h, No CI): 2.1 ± 0.9 % injected dose/gram | Biodistribution: PiP tumor ([2]; 1 h, No CI): 26 ± 3 % injected dose/gram | Biodistribution: Salivary gland ([2]; 1 h, No CI): 2.3 ± 0.5 % injected dose/gram | Biodistribution: kidneys ([2]; 1 h, No CI): 129 ± 15 % injected dose/gram | Biodistribution: spleen ([2]; 1 h, No CI): 4.3 ± 0.9 % injected dose/gram | Biodistribution: stomach ([2]; 1 h, No CI): 1.7 ± 0.3 % injected dose/gram | Biodistribution: Blood [2, 10]: 1.1 ± 0.1 % injected dose/gram | Biodistribution: Flu tumor [2, 10]: 1.0 ± 0.3 % injected dose/gram | Biodistribution: Lacrimal gland [2, 10]: 0.5 ± 0.1 % injected dose/gram | Biodistribution: PiP tumor [2, 10]: 42 ± 4 % injected dose/gram and 42 ± 4.2 % injected dose/gram | Biodistribution: Salivary gland [2, 10]: 3.2 ± 0.7 % injected dose/gram | Biodistribution: kidneys [2, 10]: 4.2 ± 1.3 % injected dose/gram | Biodistribution: spleen [2, 10]: 0.8 ± 0.2 % injected dose/gram | Biodistribution: stomach [2, 10]: 1.8 ± 0.2 % injected dose/gram | Biodistribution: Blood [2, 11]: 1.0 ± 0.1 % injected dose/gram | Biodistribution: Flu tumor [2, 11]: 0.8 ± 0.2 % injected dose/gram | Biodistribution: Lacrimal gland [2, 11]: 0.6 ± 0.05 % injected dose/gram | Biodistribution: PiP tumor [2, 11]: 29 ± 2 % injected dose/gram | Biodistribution: Salivary gland [2, 11]: 2.9 ± 0.4 % injected dose/gram | Biodistribution: kidneys [2, 11]: 2.4 ± 0.8 % injected dose/gram | Biodistribution: spleen [2, 11]: 0.6 ± 0.1 % injected dose/gram | Biodistribution: stomach [2, 11]: 1.8 ± 0.3 % injected dose/gram | Biodistribution: Blood [2, 12]: 1.1 ± 0.2 % injected dose/gram | Biodistribution: Flu tumor [2, 12]: 0.8 ± 0.2 % injected dose/gram | Biodistribution: Lacrimal gland [2, 12]: 1.1 ± 0.6 % injected dose/gram | Biodistribution: PiP tumor [2, 12]: 20 ± 3 % injected dose/gram | Biodistribution: Salivary gland [2, 12]: 5.1 ± 1.7 % injected dose/gram | Biodistribution: kidneys [2, 12]: 2.3 ± 0.7 % injected dose/gram | Biodistribution: spleen [2, 12]: 0.7 ± 0.1 % injected dose/gram | Biodistribution: stomach [2, 12]: 2.2 ± 0.7 % injected dose/gram | Biodistribution: Blood ([2]; 4 h, No CI): 0.3 ± 0.2 % injected dose/gram | Biodistribution: Flu tumor ([2]; 4 h, No CI): 0.2 ± 0.1 % injected dose/gram and 0.25 ± 0.1 % injected dose/gram | Biodistribution: Lacrimal gland ([2]; 4 h, No CI): 0.4 ± 0.2 % injected dose/gram | Biodistribution: PiP tumor ([2]; 4 h, No CI): 27 ± 7 % injected dose/gram and 27 ± 8 % injected dose/gram | Biodistribution: Salivary gland ([2]; 4 h, No CI): 1.8 ± 0.2 % injected dose/gram | Biodistribution: kidneys ([2]; 4 h, No CI): 9.5 ± 2.5 % injected dose/gram and 10 ± 2.5 % injected dose/gram | Biodistribution: spleen ([2]; 4 h, No CI): 0.6 ± 0.2 % injected dose/gram | Biodistribution: stomach ([2]; 4 h, No CI): 0.8 ± 0.5 % injected dose/gram | Biodistribution: Blood [2, 13]: 0.4 ± 0.06 % injected dose/gram | Biodistribution: Flu tumor [2, 13]: 0.3 ± 0.1 % injected dose/gram | Biodistribution: Lacrimal gland [2, 13]: 0.2 ± 0.02 % injected dose/gram and 0.4 ± 0.02 % injected dose/gram | Biodistribution: PiP tumor [2, 13]: 24 ± 3 % injected dose/gram | Biodistribution: Salivary gland [2, 13]: 3.3 ± 0.8 % injected dose/gram | Biodistribution: kidneys [2, 13]: 0.9 ± 0.1 % injected dose/gram | Biodistribution: spleen [2, 13]: 0.25 ± 0.07 % injected dose/gram | Biodistribution: stomach [2, 13]: 1.3 ± 0.2 % injected dose/gram | Biodistribution: Blood [2, 14]: 0.4 ± 0.05 % injected dose/gram | Biodistribution: Flu tumor [2, 14]: 0.3 ± 0.1 % injected dose/gram | Biodistribution: Lacrimal gland [2, 14]: 0.2 ± 0.03 % injected dose/gram | Biodistribution: PiP tumor [2, 14]: 24 ± 1 % injected dose/gram | Biodistribution: Salivary gland [2, 14]: 3.2 ± 0.7 % injected dose/gram | Biodistribution: kidneys [2, 14]: 0.6 ± 0.03 % injected dose/gram | Biodistribution: spleen [2, 14]: 0.2 ± 0.04 % injected dose/gram | Biodistribution: stomach [2, 14]: 1.2 ± 0.2 % injected dose/gram | Biodistribution: Blood [2, 15]: 0.4 ± 0.1 % injected dose/gram | Biodistribution: Flu tumor [2, 15]: 0.3 ± 0.1 % injected dose/gram | Biodistribution: Lacrimal gland [2, 15]: 0.5 ± 0.5 % injected dose/gram | Biodistribution: PiP tumor [2, 15]: 14 ± 5 % injected dose/gram | Biodistribution: Salivary gland [2, 15]: 5.0 ± 1.4 % injected dose/gram | Biodistribution: kidneys [2, 15]: 0.7 ± 0.1 % injected dose/gram | Biodistribution: spleen [2, 15]: 0.3 ± 0.06 % injected dose/gram | Biodistribution: stomach [2, 15]: 1.6 ± 0.4 % injected dose/gram | Biodistribution: Blood ([2]; 24 h, No CI): 0.01 ± 0.01 % injected dose/gram | Biodistribution: Flu tumor ([2]; 24 h, No CI): 0.05 ± 0.01 % injected dose/gram | Biodistribution: Lacrimal gland ([2]; 24 h, No CI): 0.05 ± 0.04 % injected dose/gram | Biodistribution: PiP tumor ([2]; 24 h, No CI): 18 ± 6 % injected dose/gram | Biodistribution: Salivary gland ([2]; 24 h, No CI): 0.02 ± 0.08 % injected dose/gram | Biodistribution: kidneys ([2]; 24 h, No CI): 1.3 ± 0.7 % injected dose/gram | Biodistribution: spleen ([2]; 24 h, No CI): 0.1 ± 0.05 % injected dose/gram | Biodistribution: stomach ([2]; 24 h, No CI): 0.01 ± 0.04 % injected dose/gram | Biodistribution: Blood [2, 16]: 0.1 ± 0.01 % injected dose/gram | Biodistribution: Flu tumor [2, 16]: 0.04 ± 0.01 % injected dose/gram | Biodistribution: Lacrimal gland [2, 16]: 0.03 ± 0.02 % injected dose/gram | Biodistribution: PiP tumor [2, 16]: 16 ± 4 % injected dose/gram | Biodistribution: Salivary gland [2, 16]: 0.02 ± 0.01 % injected dose/gram | Biodistribution: kidneys [2, 16]: 0.5 ± 0.2 % injected dose/gram | Biodistribution: spleen [2, 16]: 0.04 ± 0.01 % injected dose/gram | Biodistribution: stomach [2, 16]: 0.04 ± 0.04 % injected dose/gram
